In a melting point compilation (Tetko et al.; mined from patent text by program, amines drawn as free bases though some values may be those of a salt):

SMILES | melting point [°C]
FC(F)(F)c1cc(Cl)c(-n2ncc(-c3nc(Br)c(Br)[nH]3)n2)c(Cl)c1 | 234 to 235
CC1(C)OC(=S)Nc2ccc(-c3cc(C#N)ccc3F)cc21 | 250 to 251
O=C1C[C@H](NC(=O)[C@H]2CCCN2C(=O)c2nc(CCCc3ccc(O)cc3)c[nH]2)[C@@H](OCc2ccccc2)O1 | 86 to 90
CC(=O)N1c2ccc(C#N)cc2C(Nc2ccc(Cl)cc2)CC1C (stereo unspecified) | 212 to 213
COc1ccn(-c2nc(C)c(C(=O)NCc3cccnc3)s2)c(=O)c1 | 200 to 202
Fc1ccc(F)c(C(Sc2ccc(Cl)cc2)c2ccc(C3OCCO3)cn2)c1 (stereo unspecified) | 70 to 73
O=S(=O)(c1ccc(Oc2ccc(Cl)c(Cl)c2)cc1)C(F)(F)F | 77 to 78
O=c1[nH]c2ncc(-c3ccccc3)nc2n1CC1CCCCC1 | 253 to 255
CCOCC1OC(n2cc(C(F)(F)F)c(=O)n(C(=O)c3ccccc3)c2=O)CC1O (stereo unspecified) | 156 to 157
CN(c1cc(N2C(=O)C3CC(Cl)CN3C2=O)c(F)cc1Cl)S(=O)(=O)CCl (stereo unspecified) | 119 to 124
O=C(Cl)OCC1c2c(c3ccccc3c3ccccc23)-c2c1c1ccccc1c1ccccc21 | 188 to 189
O=C(O)CCc1cc2nc(C(F)(F)F)ccc2n1S(=O)(=O)c1ccccc1 | 180
COCCC(O)c1cc2c(=O)n(NS(C)(=O)=O)c(=O)[nH]c2cc1C(F)(F)F (stereo unspecified) | 180 to 184
CC(=O)Nc1ccc(CC(=O)NCCc2ccc3[nH]cc(CC#N)c3c2)cc1 | 188 to 189
Cc1cccc(N2C(=O)C(=NO)c3ccccc32)c1C | 215 to 216
COCn1ncc2cc(C(=O)OC)ccc21 | 73 to 74
CSc1ccc([N+](=O)[O-])c(C(=O)NCC2CCN(C(c3ccccc3)c3ccccc3)CC2)c1 | 179 to 181
O=C(O)C1Cc2cc(-c3ccc(Cl)cc3)ccc2O1 (stereo unspecified) | 94 to 96
Cc1cc(SCc2ccc(-c3ccc(C(F)(F)F)cn3)cc2)c2c(c1OCC(=O)O)CCC2 | 186
CCOC=Nc1c(C(=O)OCC)cnn1C | 32 to 34
CC(=O)OCc1nc(C#N)cc(OCc2ccccc2)c1OCc1ccccc1 | 98 to 99
COc1cccc([C@H]2O[C@H](CC(=O)Nc3ccsc3C(=O)O)C(=O)N(CC(C)(C)CO)c3ccc(Cl)cc32)c1OC | 154 to 155
Oc1ccc(Cc2ncc[nH]2)cc1 | 188 to 190
CCc1cc(C)cc(CC)c1CC(=O)O | 124

SMILES | melting point [°C]
CCCCCNC12CN3CN(CN(C3)C1)C2 | 119 to 120
CC1CCC(=NNc2ccccc2)c2nccc(=O)n21 (stereo unspecified) | 163 to 164
CCN1CCN(Cc2nc3sc(C)c(C)c3c(=O)n2-c2ccccc2Cl)CC1 | 126 to 129
CCN(CC)c1nc2ccccc2n2c(C)nnc12 | 123 to 125
Cc1coc(NCCN2CCC(Nc3nc4ccccc4n3Cc3ccc(F)cc3)CC2)n1 | 178
Nc1cccn2nc(SCc3ccccc3)nc12 | 116 to 117
O=S(=O)(c1ccccc1)C(F)(F)C(F)Cl (stereo unspecified) | 38 to 39
O=C(O)COc1ccc(CCc2nc(-c3ccccc3)c(-c3ccccc3)o2)cc1 | 147 to 149
COc1ccc2c(c1)C(N1CCN(C)CC1)c1ccccc1C=C2 (stereo unspecified) | 118
CCOCc1cc2c(N=C=S)cccc2cn1 | 66
O=C(Nc1ccccc1)Nc1nc2ccc(OC(=O)c3ccccc3)cc2s1 | 245 to 249
CC1(C)N=C(c2ccccc2Cl)c2cc(N)ccc2N(CCO)C1=O | 175 to 176
CC(=O)Oc1ccc(C2(c3ccc(OC(C)=O)cc3)C(Cl)(Cl)C23CCCCC3)cc1 | 162 to 163
COc1cc(C)c(C(=O)c2c(OC)cccc2C(F)(F)F)c(OC)c1OC | 69 to 70
COC(=O)CCCCCCCCCCCCCCCNc1ccc(C(=O)OC)cc1 | 92 to 93
C(=C\c1nc(COc2ccc(CCCCn3ccnc3)cc2)co1)/c1ccccc1 | 103 to 104
CCc1cccc2c(C=O)cc(OC)c(O)c12 | 114 to 115
COc1cc(CC(=O)O)ccc1OCCc1ccccc1 | 97 to 100
NS(=O)(=O)c1ccc(-c2c(-c3ccccc3)noc2COCCO)cc1 | 110 to 121
COc1cccc(Oc2c(NS(=O)(=O)c3ccc(C(C)(C)C)cc3)ncnc2OCCOc2ncc(Br)cn2)c1 | 168
C=CCSc1ncn(C(=O)N(CC=C)CC=C)n1 | 27 to 30
COc1cc(-c2c(-c3ccc(F)cc3)nc3ccc(N4CCN(C)CC4)nn23)ccn1 | 189 to 194
COc1ccc(CNc2nc(SC)ncc2C(=O)c2cccnc2)cc1Cl | 141 to 142
c1ccc2c(Nc3ccc4[nH]ncc4c3)nc(-c3ccc4c(c3)CCO4)nc2c1 | 267 to 272

SMILES | melting point [°C]
CSC(Nc1cccnc1)=C(C#N)S(=O)(=O)c1ccc(Cl)cc1 | 181 to 182
COC(=O)Cc1ccc2c(c1)C(=O)c1ccccc1CO2 | 74 to 76
COC(=O)N1CCC(c2ccc(N3C[C@H](CNC(C)=O)OC3=O)cc2F)CC1 | 165 to 166
CCCCOC(=O)N(C)c1cccc(-c2ccnc3c(C#N)cnn23)c1 | 96 to 97
COc1cc(Cl)cc(Cl)c1C(=O)NC(C)(C)CO | 131 to 132
CC1=C(C)C(=O)N(CCN(C)C)C1=O | 9
O=c1[nH]c2ccc([C@H]3CC[C@H](NCCCc4ccc(F)cc4)CC3)cc2[nH]1 | 336 to 339
Cn1nc(-c2ccccc2)cc1-c1ccccc1 | 52 to 53
COc1ccc([N+](=O)[O-])cc1NC(=O)CC(=O)C1(C)COC(C)(C)OC1 | 113 to 115
CC(C)c1n[nH]c2c(Cl)nc(Cl)nc12 | > 250
CS(=O)(=O)c1ccc(-c2cnn(-c3cccc(Cl)c3)c(=O)c2OCc2ccccc2)cc1 | 110 to 113
Nc1ccc(SCc2csc(N)n2)cc1 | 130 to 132
CCOC(=O)C1=C(C)Nc2nc(N3CCOCC3)nc(N3CCOCC3)c2C1c1ccccc1Cl (stereo unspecified) | 241
O=c1oc(-c2ccsc2)cc(O)c1SCc1ccccc1 | 150 to 151
O=C(O)c1cc(C(=O)C2CCCCC2)cc2c1OC(c1ccccc1)(c1ccccc1)O2 | 212 to 214
CCC1(CC)CC(c2ccc(OC)c(OC)c2)=NN(C2CCN(C(=O)c3ccccc3)CC2)C1=O | 160 to 161
O=C(NC(=O)N1CCC(Oc2ccc(Cl)cc2)CC1)c1ccc(O)cc1 | 189
O=C1CCC(c2ccccc2)(c2ccccc2)[C@@H]2CN(C(=O)CC3=CSCSC3)C[C@H]12 (racemic) | 211
NC(=O)c1cccc(CCN2CC=C(c3c[nH]c(-c4ccc(F)cc4)c3-c3ccncc3)CC2)c1 | 185 to 188
O=C(CO)NCCCn1c(-c2ccc(Br)cc2)csc1=Nc1ccccc1 | 185 to 186
CCC(C)(Oc1ccc(CC(=O)c2ccc3c(c2)CCC3)cc1)C(=O)O (stereo unspecified) | 160 to 161
COc1nc(N)nc2c1ncn2[C@@H]1O[C@H](CO)[C@@H](O)[C@@]1(C)F | 199 to 202
COc1ccc(-c2coc3ccc(-c4nnc(SCc5cccc(F)c5)o4)cc23)cc1 | 146 to 147
